In patent US9580411B2, “Substituted sulfonamide compounds” (Hoffmann-La Roche Inc., priority 2012, dated 2017) one finds IC50 data, which are given here for 24 compounds.

hTRPA1, sequence (O75762 whole entry): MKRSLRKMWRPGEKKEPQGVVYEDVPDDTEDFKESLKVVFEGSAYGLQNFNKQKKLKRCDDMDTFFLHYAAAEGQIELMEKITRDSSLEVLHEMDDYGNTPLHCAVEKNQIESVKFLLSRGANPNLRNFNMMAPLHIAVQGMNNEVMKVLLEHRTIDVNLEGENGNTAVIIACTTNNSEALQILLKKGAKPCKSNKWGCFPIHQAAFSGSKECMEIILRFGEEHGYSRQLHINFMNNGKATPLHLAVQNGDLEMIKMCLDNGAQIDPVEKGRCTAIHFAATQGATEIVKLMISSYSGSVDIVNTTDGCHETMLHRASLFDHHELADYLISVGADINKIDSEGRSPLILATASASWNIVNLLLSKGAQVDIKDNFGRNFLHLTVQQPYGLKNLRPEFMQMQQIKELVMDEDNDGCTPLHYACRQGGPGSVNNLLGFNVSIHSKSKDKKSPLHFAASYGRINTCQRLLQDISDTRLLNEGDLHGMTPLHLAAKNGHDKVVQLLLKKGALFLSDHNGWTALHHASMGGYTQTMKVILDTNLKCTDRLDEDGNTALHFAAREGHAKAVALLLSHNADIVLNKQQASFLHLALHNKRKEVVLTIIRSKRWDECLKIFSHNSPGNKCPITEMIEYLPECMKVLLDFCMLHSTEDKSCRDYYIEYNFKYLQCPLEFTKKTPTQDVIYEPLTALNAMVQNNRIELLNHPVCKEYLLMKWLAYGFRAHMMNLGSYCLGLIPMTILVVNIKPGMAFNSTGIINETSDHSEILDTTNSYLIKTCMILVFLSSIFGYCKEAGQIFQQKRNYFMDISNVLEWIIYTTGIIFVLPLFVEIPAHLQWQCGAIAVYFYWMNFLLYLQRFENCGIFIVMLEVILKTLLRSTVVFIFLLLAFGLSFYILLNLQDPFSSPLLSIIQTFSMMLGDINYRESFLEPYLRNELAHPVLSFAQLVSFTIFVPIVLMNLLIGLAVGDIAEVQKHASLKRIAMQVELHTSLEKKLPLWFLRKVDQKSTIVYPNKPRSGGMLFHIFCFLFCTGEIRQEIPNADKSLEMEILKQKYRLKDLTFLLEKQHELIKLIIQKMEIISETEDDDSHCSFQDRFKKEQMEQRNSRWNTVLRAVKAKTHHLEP

The experiment has as its target hTRPA1 (Homo sapiens (Human), UniProt O75762). Description: Dose response calcium flux assay (FLIPR), ChanTest hTRPA1-CHO stably transfected cell line. The class given is cell-based. Conditions: CHO-K1 Tet-On human TRPA1 cells, cinnamaldehyde agonist (final 100 uM). The method, then:
IC50 Determinations of Exemplified Compounds Dose Response Assay: Chan Test hTRPA1-CHO Stably Transfected Cell Line
CHO-K1 Tet-On_HOMSA_TRPA1_Clone_20
Chinese Hamster Ovary cells, inducible expression
• Ham's F-12 with 10% tetracycline-free FBS • 1× penicillin-streptomycin • 1× glutamax • 0.01 mg/ml Blasticidin • 0.40 mg/ml Zeocin • The cell line doubling rate was ˜15 hours. […] Experiments were run at 24 hours post induction. Plating Conditions CHOK1/TRPA1 Cells: • Harvested cells with 0.025% trypsin/EDTA. • Resuspended cells in growth media without selection antibiotics. • Measured cell density and diluted to 2.4×10^5 cells/ml in media containing 1 ug/ml Doxycycline Plate 25 ul/well into 384 well black/clear tissue culture-treated plates. • Incubated overnight at 37° C. Calcium Flux Assay: Day of Assay: Reagents: • Replacement Buffer: Hank's Balanced Salt Solution, 20 mM HEPES along with 0.005% BSA and 2× Probenecid • Dye Loading Buffer: Cal-3 NW Calcium dye was prepared by dissolving the contents of one vial with […] Hank's Balanced Salt Solution containing 20 mM HEPES. • Control compounds for CHOK1/TRPA1 cells: AP-18, stock 10 mM, prepare 3.5× compound dilution in a Compound Buffer (HBSS/20 mM HEPES/0.005% BSA)—final concentration 10 uM. • Preparation of Cinnamaldehyde (agonist addition): FW=132.16 • Specific gravity=1.046 gm/cc • 1.32 gm/1.046 gm/cc=1.26 ml of stock • Add 1.74 ml DMSO=3.3 M stock • Working solution 4.5× (final 100 uM in Compound Buffer: HBSS/20 mM HEPES/0.005% BSA) • Compounds dilutions were prepared from 5 or 10 mM stock (100% DMSO): • Adjustments of volumes and concentrations were made at time of titration to reflect desired final assay concentrations. • Compounds were tested at either 20 μM three folds dilution 11 steps out or 30 μM two folds dilution 11 steps out. • 3 μl of diluted compound were transferred into Weidmann 384-well plate in duplicates side-by-side. • Compound plates were resuspended with 100 ul of HBSS/20 mM HEPES/0.005% BSA buffer (Compound Buffer): • column 1A-H: buffer/DMSO (bk) • column 2A-H: AP-18 (control antagonist for CHOK1 TRPA1 cells) • column 1I-P: ATP (control for CHOK1 teton cells) • column 2 I-P: 2APB (control antagonist for CHOK1/TRPM8 cells). Growth media was removed from the cell plates (20 ul) and 20 ul of the Replacement Buffer was added followed by addition of 25 ul of diluted dye. All three steps were performed using a Plate Washer BioTek 407. The plates were then incubated for 30′ at RT.
After incubation, both the cell and compound plates were brought to the FLIPR and 20 ul of the diluted compounds/antagonist/bk were transferred to the cell plates by the FLIPR. Plates were then incubated for 30′ at room temperature. After 30′ incubation, plates were returned to the FLIPR and 20 ul of 4.5× Cinnamaldehyde was added to the cell plates. During the compound addition as well as agonist addition, fluorescence readings were taken simultaneously from all 384 wells of the cell plate every 1.5 seconds. Five readings were taken to establish a stable baseline, then 20 ul of sample was rapidly (30 ul/sec) and simultaneously added to each well of the cell plate. The fluorescence was continuously monitored before, during and after sample/agonist addition for a total elapsed time of 100 seconds (compound addition) and 120 seconds (agonist addition). Responses (increase in peak fluorescence) in each well following agonist addition was determined. The initial fluorescence reading from each well, prior to ligand stimulation, was used a zero baseline value for the data from that well.
A general note: A change in cytosolic calcium serves as a functional read-out for many receptors and channels.
As a reminder, the IC50 is the concentration at which inhibition is half-maximal. Turning to `O=C(CN(CCO)S(=O)(=O)c1ccc(F)cc1)NCc1cc(-c2ccc(C(F)(F)F)cc2)ncn1` [Example 30, 2-[(4-fluoro-benzenesulfonyl)-(2-hydroxy-ethyl)-amino]-N-[6-(4-trifluoromethyl-phenyl)-pyrimidin-4-ylmethyl]acetamide], the IC50 stood at 0.22 µM.
On to `CC(C)N(CC(=O)NCc1cc(-c2ccc(C(F)(F)F)cc2)ncn1)S(=O)(=O)c1ccc(F)c(F)c1` [Example 69, 2-[(3,4-Difluoro-benzenesulfonyl)-isopropyl-amino]-N-[6-(4-trifluoromethyl-phenyl)-pyrimidin-4-ylmethyl]-acetamide], for which the IC50 stood at 0.019 µM.
Turning to `CCN(CC(=O)NCc1cc(-c2ccc(C(F)(F)F)cc2)ccc1F)S(=O)(=O)c1ccc(F)cc1` [Example 16, 2-[Ethyl-(4-fluoro-benzenesulfonyl)-amino]-N-(4-fluoro-4′-trifluoromethyl-biphenyl-3-ylmethyl)-acetamide], the IC50 is 0.024 µM.
With `CC(C)N(CC(=O)NCc1ccc(F)c(-c2cnc(C(F)(F)F)nc2)c1)S(=O)(=O)c1ccc(F)cc1` [Example 70, 2-[(4-Fluoro-benzenesulfonyl)-isopropyl-amino]-N-[4-fluoro-3-(2-trifluoromethyl-pyrimidin-5-yl)-benzyl]-acetamide], the IC50 amounted to 0.048 µM.
Consider `CC(C)N(CC(=O)NCc1cc(-c2ccc(C(F)(F)F)cc2)ncn1)S(=O)(=O)c1cnccn1` [Example 67, 2-[Isopropyl-(pyrazine-2-sulfonyl)-amino]-N-[6-(4-trifluoromethyl-phenyl)-pyrimidin-4-ylmethyl]-acetamide], for which the IC50 is 0.38 µM.
In the case of `CC(C)[C@H](C(=O)NCc1cccc(-c2ccc(C(F)(F)F)cc2)c1)N(C)S(=O)(=O)c1ccc(F)cc1` [Example 6, (R)-2-[(4-Fluoro-benzenesulfonyl)-methyl-amino]-3-methyl-N-(4′-trifluoromethyl-biphenyl-3-ylmethyl)-butyramide], the IC50 was 1.11 µM.
In the case of `CC(C)N(CC(=O)NCc1cccc(-c2ccc(C(F)(F)F)cn2)c1)S(=O)(=O)c1cccc(F)c1` [Example 50, 2-[(3-Fluoro-benzenesulfonyl)-isopropyl-amino]-N-[3-(5-trifluoromethyl-pyridin-2-yl)-benzyl]-acetamide] it was 0.079 µM; in that of `CC(C)N(CC(=O)NCc1cncc(-c2ccc(C(F)(F)F)cc2)c1)S(=O)(=O)c1ccc(F)cc1` [Example 57, 2-[(4-Fluoro-benzenesulfonyl)-isopropyl-amino]-N-[5-(4-trifluoromethyl-phenyl)-pyridin-3-ylmethyl]-acetamide], 0.18 µM.
`CC(C)N(CC(=O)NCc1cccc(-c2cnc(C(F)(F)F)cn2)c1)S(=O)(=O)c1ccc(F)cc1` [Example 71, 2-[(4-Fluoro-benzenesulfonyl)-isopropyl-amino]-N-[3-(5-trifluoromethyl-pyrazin-2-yl)-benzyl]-acetamide]: the IC50 was determined as 0.079 µM.
In the case of `C[C@@H](C(=O)NCc1cccc(-c2ccc(C(F)(F)F)cc2)c1)N(C)S(=O)(=O)c1ccc(F)cc1` [Example 2, (S)-2-[(4-Fluoro-benzenesulfonyl)-methyl-amino]-N-(4′-trifluoromethyl-biphenyl-3-ylmethyl)-propionamide] it was 0.035 µM; in that of `CC(C)N(CC(=O)NCc1cc(-c2ccc(C(F)(F)F)cc2)ncn1)S(=O)(=O)c1ccc(Cl)nc1` [Example 64, 2-[(6-Chloro-pyridine-3-sulfonyl)-isopropyl-amino]-N-[6-(4-trifluoromethyl-phenyl)-pyrimidin-4-ylmethyl]-acetamide], 0.083 µM; in that of `CC(C)N(CC(=O)NCc1cccc(-c2cnc(C(F)(F)F)nc2)c1)S(=O)(=O)c1ccc(F)cc1` [Example 68, 2-[(4-Fluoro-benzenesulfonyl)-isopropyl-amino]-N-[3-(2-trifluoromethyl-pyrimidin-5-yl)-benzyl]-acetamide], 0.047 µM.
Consider `CN(CC(=O)NCc1cccc(-c2ccc(C(F)(F)F)cc2)c1)S(=O)(=O)c1ccc(F)cc1` [Example 1, 2-[(4-Fluoro-benzenesulfonyl)-methyl-amino]-N-(4′-trifluoromethyl-biphenyl-3-ylmethyl)-acetamide], for which the IC50 was determined as 0.081 µM.
For `CN(CC(=O)NCc1cc(-c2ccc(C(F)(F)F)cc2)ncn1)S(=O)(=O)c1ccc(F)cc1` [Example 21, 2-[(4-Fluoro-benzenesulfonyl)-methyl-amino]-N-[6-(4-trifluoromethyl-phenyl)-pyrimidin-4-ylmethyl]-acetamide], the IC50 stood at 0.097 µM.
Consider `CN(CC(=O)NCc1cccc(-c2ccc(C(F)(F)F)cn2)c1)S(=O)(=O)c1ccc(F)cc1` [Example 41, 2-[(4-Fluoro-benzenesulfonyl)-methyl-amino]-N-[3-(5-trifluoromethyl-pyridin-2-yl)-benzyl]-acetamide], for which the IC50 is 0.29 µM.
For the compound `CC(C)N(CC(=O)NCc1cc(-c2ccc(C(F)(F)F)nc2)ccn1)S(=O)(=O)c1ccc(F)cc1` [Example 55, 2-[(4-Fluoro-benzenesulfonyl)-isopropyl-amino]-N-(6-trifluoromethyl-[3,4′]bipyridinyl-2′-ylmethyl)-acetamide], the IC50 stood at 0.13 µM.
As for `CC(C)N(CC(=O)NCc1ccnc(-c2cnc(C(F)(F)F)nc2)c1)S(=O)(=O)c1ccc(F)cc1` [Example 74, 2-[(4-Fluoro-benzenesulfonyl)-isopropyl-amino]-N-[2-(2-trifluoromethyl-pyrimidin-5-yl)-pyridin-4-ylmethyl]-acetamide], the IC50 was determined as 0.298 µM.
In the case of `O=C(CN(C1COC1)S(=O)(=O)c1ccc(F)cc1)NCc1cccc(-c2ccc(C(F)(F)F)cc2)c1` [Example 60, 2-[(4-Fluoro-benzenesulfonyl)-oxetan-3-yl-amino]-N-(4′-trifluoromethyl-biphenyl-3-ylmethyl)-acetamide] it was 0.2 µM; in that of `CCN(CC(=O)NCc1cc(F)cc(-c2ccc(C(F)(F)F)cc2)c1)S(=O)(=O)c1ccc(F)cc1` [Example 15, 2-[Ethyl-(4-fluoro-benzenesulfonyl)-amino]-N-(5-fluoro-4′-trifluoromethyl-biphenyl-3-ylmethyl)-acetamide], 0.028 µM; in that of `CC(C)[C@@H](C(=O)NCc1cccc(-c2ccc(C(F)(F)F)cc2)c1)N(C)S(=O)(=O)c1ccc(F)cc1` [Example 5, (S)-2-[(4-Fluoro-benzenesulfonyl)-methyl-amino]-3-methyl-N-(4′-trifluoromethyl-biphenyl-3-ylmethyl)-butyramide], 1.62 µM.
With `CCN(CC(=O)NCc1ccc(-c2cccc(C(F)(F)F)c2)cc1)S(=O)(=O)c1ccc(F)cc1` [Example 18, 2-[Ethyl-(4-fluoro-benzenesulfonyl)-amino]-N-(3′-trifluoromethyl-biphenyl-4-ylmethyl)-acetamide], the IC50 worked out at 4.81 µM.
As for `CCN(CC(=O)NCc1cc(-c2ccc(C(F)(F)F)cc2)ncn1)S(=O)(=O)c1ccc(F)cc1` [Example 28, 2-[Ethyl-(4-fluoro-benzenesulfonyl)-amino]-N-[6-(4-trifluoromethyl-phenyl)-pyrimidin-4-ylmethyl]-acetamide], the IC50 turned out to be 0.033 µM.
As to `O=C(CN(CC1COC1)S(=O)(=O)c1ccc(F)cc1)NCc1cccc(-c2ccc(C(F)(F)F)cc2)c1` [Example 54, 2-[(4-Fluoro-benzenesulfonyl)-oxetan-3-ylmethyl-amino]-N-(4′-trifluoron-3-ylmethyl-amino]-N-(4′-trifluoromethyl-biphenyl-3-ylmethyl)-acetamide], the IC50 is 1.76 µM.
In the case of `CC(C)N(CC(=O)NCc1cccc(-c2ccc(C(F)(F)F)nn2)c1)S(=O)(=O)c1ccc(Cl)nc1` [Example 73, 2-[(6-Chloro-pyridine-3-sulfonyl)-isopropyl-amino]-N-[3-(6-trifluoromethyl-pyridazin-3-yl)-benzyl]-acetamide] it was 0.682 µM.
